Experimental data as given in patent US20120088737A2, “NOVEL ACYL GUANIDINE DERIVATIVES” (AJINOMOTO CO., INC, priority 2009, published 2012).

Legend:
NHE1 = target: T1, NHE1 (Homo sapiens, UniProt P19634); experiment: Measurements of NHE1 inhibitory activities (HLF cells, BCECF pH recovery); format: cell-based; settings: HLF cells (human hepatoma cell line), measured after 10 minutes; read-out: hNHE1 IC50
T1 construct: HLF cells (Human hepatoma cell line) were used as cells for the test; endogenous in cells; host or cells: HLF cells (human hepatoma cell line)
T1 sequence (P19634 whole entry): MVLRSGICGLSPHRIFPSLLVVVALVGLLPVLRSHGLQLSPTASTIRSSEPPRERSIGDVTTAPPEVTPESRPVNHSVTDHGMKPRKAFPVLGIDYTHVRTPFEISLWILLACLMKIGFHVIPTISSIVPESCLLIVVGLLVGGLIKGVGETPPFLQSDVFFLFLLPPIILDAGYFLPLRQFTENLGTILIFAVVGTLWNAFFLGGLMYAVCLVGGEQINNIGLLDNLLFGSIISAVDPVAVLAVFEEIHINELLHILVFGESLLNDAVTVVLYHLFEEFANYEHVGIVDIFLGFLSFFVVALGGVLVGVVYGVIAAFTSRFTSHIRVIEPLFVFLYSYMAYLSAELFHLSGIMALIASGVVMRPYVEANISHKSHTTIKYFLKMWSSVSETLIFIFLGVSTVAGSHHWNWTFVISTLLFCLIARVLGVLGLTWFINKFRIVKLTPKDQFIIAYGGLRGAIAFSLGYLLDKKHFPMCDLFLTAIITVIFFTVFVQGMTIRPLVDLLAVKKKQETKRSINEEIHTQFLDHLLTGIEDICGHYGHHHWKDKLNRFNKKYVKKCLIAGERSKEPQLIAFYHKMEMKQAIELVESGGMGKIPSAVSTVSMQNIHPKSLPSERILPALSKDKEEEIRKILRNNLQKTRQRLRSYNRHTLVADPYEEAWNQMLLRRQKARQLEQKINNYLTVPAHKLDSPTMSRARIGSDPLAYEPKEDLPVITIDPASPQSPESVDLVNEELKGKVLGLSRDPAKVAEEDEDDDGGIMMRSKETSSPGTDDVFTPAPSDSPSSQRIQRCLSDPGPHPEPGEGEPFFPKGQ
Procedure: Pharmacological Test Example 1: Measurements of NHE1 Inhibitory Activities
HLF cells (Human hepatoma cell line) were used as cells for the test. After 1×10^4 cells/well were seeded to a 96-well plate and cultured for 3 days, they were cultured overnight under a serum-free medium. Then, the cells were incubated in a stain solution of Tetramethylammonium (TMA) Buffer (130 mM TMA-C1, 5 mM KCl, 2 mM CaCl2, 1 mM MgSO2, 25 mM glucose, 20 mM HEPES; pH 7.4) containing 40 mM NH4Cl and 1 μg/mL pH-sensitive fluorescent indicator BCECF-AM at 37° C. for 40 minutes and then BCECF was introduced into the cells. After the cells were washed once with TMA Buffer and incubated in TMA+40 mM NH4Cl solution at 37° C. for 15 minutes, the solution was removed and 20 μL/well of TMA Buffer and 10 μL/well of each test compound solution prepared with TMA Buffer were added to each well. The measurements were carried out by adding 200 μL/well of Na Buffer (130 mM, NaCl, 5 mM KCl, 2 mM CaCl2, 1 mM MgSO2, 1 mM NaH2PO4, 25 mM glucose, 20 mM HEPES; pH 7.4) or TMA Buffer (for base measurement), immediately placing it on FlexStation (Molecular Device) and then, after 10 minutes, measuring, it the two wavelengths of 505 nm (excitation wavelength)/530 nm (emission wavelength) (measurement value) and 440 nm (excitation wavelength)/530 nm (emission wavelength) (isosbestic point value). A NHE activity was calculated by dividing a measurement value by an isosbestic point value and a NHE1 inhibitory activity was calculated by the following equation. NHE1 inhibitory activity (%)=100×(1−(Measurement value [addition of each compound]−Base [addition of TMA Buffer])/(Control [addition of Na Buffer]−Base [addition of TMA Buffer]))

human NHE3 = target: T2, human NHE3 (Homo sapiens, UniProt P48764); experiment: Improved version of measurements of NHE3 inhibitory activities (OK26 ND cell lines); format: cell-based; settings: OK26 ND cell lines (opNHE1 expression reduced by 90%), measurement time 8 minutes at 26° C.; read-out: hNHE3 IC50
T2 construct: expressed in transfected cells; host or cells: OK26 cells (opossum kidney OK cells); OK26 ND sublines with opNHE1 reduced by 90% for A3
T2 sequence (P48764 26-834): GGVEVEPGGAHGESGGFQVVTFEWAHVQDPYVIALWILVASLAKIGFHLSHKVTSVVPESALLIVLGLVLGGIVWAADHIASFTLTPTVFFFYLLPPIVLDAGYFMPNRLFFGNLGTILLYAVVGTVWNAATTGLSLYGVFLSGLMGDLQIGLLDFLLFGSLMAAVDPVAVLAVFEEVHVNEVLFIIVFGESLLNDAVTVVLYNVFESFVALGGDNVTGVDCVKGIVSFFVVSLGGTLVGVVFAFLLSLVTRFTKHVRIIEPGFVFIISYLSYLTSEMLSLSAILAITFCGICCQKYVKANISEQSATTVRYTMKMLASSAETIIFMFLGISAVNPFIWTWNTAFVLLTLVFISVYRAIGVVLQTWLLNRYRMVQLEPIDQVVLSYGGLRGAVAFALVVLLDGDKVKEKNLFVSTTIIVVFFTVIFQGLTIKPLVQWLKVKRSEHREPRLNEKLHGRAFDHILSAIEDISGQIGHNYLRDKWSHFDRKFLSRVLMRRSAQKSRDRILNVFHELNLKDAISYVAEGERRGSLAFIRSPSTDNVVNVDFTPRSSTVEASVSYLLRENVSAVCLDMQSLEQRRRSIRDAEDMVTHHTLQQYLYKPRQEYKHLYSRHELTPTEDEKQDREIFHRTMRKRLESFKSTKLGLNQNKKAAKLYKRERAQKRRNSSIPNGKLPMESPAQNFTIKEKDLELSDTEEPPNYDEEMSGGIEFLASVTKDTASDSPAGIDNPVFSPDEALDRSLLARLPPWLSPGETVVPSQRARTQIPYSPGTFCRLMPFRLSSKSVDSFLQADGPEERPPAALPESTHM
Procedure: Pharmacological Test Example 3: Improved Version of Measurements of NHE3 Inhibitory Activities
OK26 cells express endogeneous NHE1 (opNHE1). In order to evaluate NHE3 inhibitory activities more precisely, OK26 ND cell lines in which the expression level of opNHE1 is reduced by 90% were established. Measurements of NEE inhibitory activities were carried out by using the established cell lines in the same manner as described in Pharmacological Test Example 1 except that the measurement time was 8 minutes (at 26° C.) to calculate more precise NHE3 inhibitory activities.

| Structure (SMILES) | IC50 (NHE1) | IC50 (human NHE3) |
| --- | --- | --- |
| C/C(=C\c1ccccc1-c1ccc(C(=N)N)c(F)c1)C(=O)NC(=N)N [Example 58, (E)-3-fluoro-2′-(3-guanidino-2-methyl-3-oxo-propenyl)-biphenyl-4-carboxamidine] | 200 nM | 9 nM |
| C/C(=C\c1ccc(-c2cc(C)c(O)c(C)c2)cc1-c1cc(C)c(O)c(C)c1)C(=O)NC(=N)N [Example 75, N-[(E)-3-(2,4-di(3,5-dimethyl-4-hydroxyphenyl)-phenyl)-2-methyl-acryloyl]-guanidine] | 1800 nM | 100 nM |
| C/C(=C\c1ccc(Oc2ccc(S(N)(=O)=O)cc2)cc1-c1cccc(O)c1)C(=O)NC(=N)N [Example 64, 4-[(E)-6-(3-guanidino-2-methyl-3-oxo-propenyl)-3′-hydroxy-biphenyl-3-yloxy]-benzenesulfonamide] | 1300 nM | 150 nM |
| C/C(=C\c1ccc(-c2ccc(F)c(O)c2)cc1-c1ccc(F)c(O)c1)C(=O)NC(=N)N [Example 76, N-[(E)-3-(2,4-di(3-hydroxy-4-fluorophenyl)-phenyl)-2-methyl-acryloyl]-guanidine] | 1100 nM | 400 nM |
| C/C(=C\c1ccc(-c2ccc(CO)cc2)cc1)C(=O)NC(=N)N [Example 93] |  | 250 nM |
| C/C(=C\c1ccc(-c2ccc(O)cc2)cc1N1CCOCC1)C(=O)NC(=N)N [Example 94, N-[(E)-3-(4′-hydroxy-3-morpholine-4-yl-biphenyl-4-yl)-2-methyl-acryloyl]-guanidine] | 2100 nM | 320 nM |
| C/C(=C\c1ccc(-c2ccc(O)cc2C)cc1C)C(=O)NC(=N)N [Example 96, N-[(E)-3-(4′-hydroxy-3,2′-dimethyl-biphenyl-4-yl)-2-methyl-acryloyl]-guanidine] |  | 200 nM |
| C/C(=C\c1ccc(C)cc1-c1ccc(O)c(F)c1)C(=O)NC(=N)N [Example 62, N-[(E)-3-(3′-fluoro-4′-hydroxy-5-methylbiphenyl-2-yl)-2-methyl-acryloyl]-guanidine] | 1300 nM | 92 nM |
| C/C(=C\c1ccccc1-c1ccc(C(=N)N)cc1C)C(=O)NC(=N)N [Example 57, (E)-2′-(3-guanidino-2-methyl-3-oxo-propenyl)-2-methyl-biphenyl-4-carboxamidine] | 1100 nM | 100 nM |
| C/C(=C\c1cccc(C)c1-c1ccc(O)cc1)C(=O)NC(=N)N [Example 67, N-[(E)-3-(4′-hydroxy-6-methyl-biphenyl-2-yl)-2-methyl-acryloyl]-guanidine] | 2100 nM | 120 nM |
| C/C(=C\c1ccc(-c2ccc(O)cc2)cc1C)C(=O)NC(=N)N [Example 95, N-[(E)-3-(4′-hydroxy-3-methyl-biphenyl-4-yl)-2-methyl-acryloyl]-guanidine] |  | 240 nM |
| C/C(=C\c1ccc(-c2ccc(O)c(O)c2)cc1)C(=O)NC(=N)N [Example 92, N-[(E)-3-(3′,4′-dihydroxy-biphenyl-4-yl)-2-methyl-acryloyl]-guanidine] |  | 150 nM |
| C/C(=C\c1ccccc1-c1ccc(O)cc1F)C(=O)NC(=N)N [Example 59, N-[(E)-3-(2′-fluoro-4′-hydroxy-biphenyl-2-yl)-2-methyl-acryloyl]-guanidine] | 3200 nM | 280 nM |
| C/C(=C\c1ccc(C)cc1-c1ccc(F)c(O)c1)C(=O)NC(=N)N [Example 63, N-[(E)-3-(4′-fluoro-3′-hydroxy-5-methyl-biphenyl-2-yl)-2-methyl-acryloyl]-guanidine] | 9900 nM | 330 nM |
| C/C(=C\c1ccc(Oc2ccc(O)cc2)cc1-c1ccc(O)cc1)C(=O)NC(=N)N [Example 71, N-{(E)-3-[4′-hydroxy-5-(4-hydroxy-phenoxy)-biphenyl-2-yl]-2-methyl-acryloyl}-guanidine] | 1300 nM | 130 nM |
| C/C(=C\c1ccc(-c2ccc(O)cc2C)cc1)C(=O)NC(=N)N [Example 90, N-[(E)-3-(4′-hydroxy-2′-methyl-biphenyl-4-yl)-2-methyl-acryloyl]-guanidine] |  | 300 nM |

The next lines start with the values.

| IC50 (NHE1) | IC50 (human NHE3) | Structure (SMILES) |
| --- | --- | --- |
| 3300 nM | 150 nM | COc1cc(-c2ccc(/C=C(\C)C(=O)NC(=N)N)c(-c3ccc(O)c(OC)c3)c2)ccc1O [Example 78, N-[(E)-3-(2,4-di(3-methoxy-4-hydroxyphenyl)-phenyl)-2-methyl-acryloyl]-guanidine] |
|  | 130 nM | COc1cc(-c2cc(C)ccc2/C=C(\C)C(=O)NC(=N)N)ccc1O [Example 66, N-[(E)-3-(4′-hydroxy-3′-methoxy-5-methyl-biphenyl-2-yl)-2-methyl-acryloyl]-guanidine] |
| 7700 nM | 200 nM | C/C(=C\c1c(-c2ccc(O)cc2)cccc1-c1ccc(O)cc1)C(=O)NC(=N)N [Example 80, N-[(E)-3-(4,4″-dihydroxy-[1,1′;3′,1″]terphenyl-2′-yl)-2-methyl-acryloyl]-guanidine] |
| 2600 nM | 610 nM | COc1cc(-c2ccccc2/C=C(\C)C(=O)NC(=N)N)ccc1O [Example 23, N-[(E)-3-(4′-hydroxy-3′-methoxy-biphenyl-2-yl)-2-methyl-acryloyl]guanidine] |
|  | 960 nM | C/C(=C\c1c(Br)cccc1-c1ccc(O)cc1)C(=O)NC(=N)N [Example 70, N-[(E)-3-(3-bromo-4′-hydroxy-biphenyl-2-yl)-2-methyl-acryloyl]-guanidine] |
| 2200 nM | 540 nM | C/C(=C\c1ccccc1-c1cscc1C)C(=O)NC(=N)N [Example 83, N-{(E)-2-methyl-3-[2-(4-methyl-thiophene-3-yl)-phenyl]-acryloyl}-guanidine] |
|  | 400 nM | C/C(=C\c1ccccc1-c1ccc(CO)cc1)C(=O)NC(=N)N [Example 6, N-[(E)-3-(4′-hydroxymethyl-biphenyl-2-yl)-2-methyl-acryloyl]-guanidine] |
| 5200 nM | 700 nM | C/C(=C\c1ccc(C)cc1-c1ccc(C(=N)N)c(F)c1)C(=O)NC(=N)N [Example 79, (E)-3-fluoro-2′-(3-guanidino-2-methyl-3-oxo-propenyl)-5′-methyl-biphenyl-4-carboxamidine] |
| 1500 nM | 210 nM | C/C(=C\c1ccc(Oc2ccc(S(N)(=O)=O)cc2)cc1-c1ccc(O)cc1)C(=O)NC(=N)N [Example 65, 4-[(E)-6-(3-guanidino-2-methyl-3-oxo-propenyl)-4′-hydroxy-biphenyl-3-yloxy]-benzenesulfonamide] |
|  | 190 nM | C/C(=C\c1ccc(-c2cc(O)ccc2F)cc1)C(=O)NC(=N)N [Example 91, N-[(E)-3-(2′-fluoro-5′-hydroxy-biphenyl-4-yl)-2-methyl-acryloyl]-guanidine] |
|  | 470 nM | C/C(=C\c1ccc(-c2ccoc2)cc1)C(=O)NC(=N)N [Example 85, N-[(E)-3-(4-furan-3-yl-phenyl)-2-methyl-acryloyl]-guanidine] |
|  | 120 nM | COc1ccc(/C=C(\C)C(=O)NC(=N)N)c(-c2ccc(O)cc2)c1 [Example 73, N-[(E)-3-(4′-hydroxy-5-methoxy-biphenyl-2-yl)-2-methyl-acryloyl]-guanidine] |
